Reference: PMC12856912, “Structure-Guided Semisynthesis of Blasticidin S–Amicetin Chimeras as Selective Ribosome Inhibitors” (Journal of the American Chemical Society, 2026)
≈ marks a conversion by molar mass, not a printed value. Like-named read-outs stand apart in the source and are kept apart here.

Key:
[1] = tested on: MRSA ATCC 43300; assay: Antibacterial MIC assay, serial dilution; type: cell-based, Staphylococcus aureus; conditions: for Selectivity index (CC50/MIC) MRSA 43300: CC50 Vero cells / MIC; for MIC: Staphylococcus aureus, read-out: MIC MRSA ATCC 43300
Method: (§1) Media and solutions were autoclaved or sterile filtered prior to use and mani pulations were carri ed out in a laminar flow hood. Antibacterial t esting was performed in polypropylene 96-well flat bottom plates. The minimal inhibitory concentration of blasticidin S (1) hydrochloride, methyl ester (3) trihydrochloride, P10 (2) tri-T FA , phenet hyl amide (4) tri -T FA , an d blastimidines M 19– 22, A, 29–32, P 37–40, and C 43–46 (salt forms as described in the te xt) were assessed against Staphylococcus aureus ΔNorA, S. aureus ATCC 6538P, methicillin-resistant S. aureus (MRSA) ATCC 43300, Enterococcus faecalis ATCC 29212, vancomycin- resistant Enterococcus, Klebsiella pneumoniae ATCC 29665, Pseudomonas aeruginosa,and Acinetobacter baumannii ATCC 17978 using serial dilutions. Doxycycline (Gold Bio) as a positive control and the vehicle as a negative control. Stock solutions of each compound were prepared at 2.56 mg/mL in 50% DMSO/water and serially diluted in 50% DMSO/water to create master plates. From the master plates, 10 μ L o f each dilution was applied to test plates using a Bravo automated liquid transfer system (Agilent).
(§2) Bacteria previously grown overnight (37 °C, 120–200 RPM), in LB broth were diluted to an OD600 of 0.05 in cation-adjusted Mueller-Hinton broth (CAMHB), grown to an OD600 of ~0.5, and diluted to an OD600 of 0.004 in CAMHB . These diluted cultures were applied to the test plates (190 μL per test well) resulting in final concentrations of the test compounds of 128–1 μg/ m L.
(§3) Growth controls (wells with inoculated media but no vehicle or test compounds) were included to assess any potential toxicity from the vehicle. Th e plates were in cubated at 37 °C for 16–18 h, except fo r VRE and E. faecalis, which w ere in cub ated at 37 °C fo r 24 h. Inh ibition was determined by measuring the optical density at 600 nm (OD60 0) with a Cytation 3 pl ate read er (BioTek). The optical density measurem ents were no rmalized to the positive and negative controls and the vehicle and growth controls were compared and found to b e indistinguishable, indicating no toxicity from […]
(§4) the vehicle used. The MIC was the lowest concentration that inhibited >90% of growth. Two biological replicates were performed in duplicate. MIC values are reported as a range from […]

[2] = tested on: S. aureus ATCC 6538P; assay: Antibacterial MIC assay, serial dilution; type: cell-based, Staphylococcus aureus; conditions: for Selectivity index (CC50/MIC) S. aureus 6538P: CC50 Vero cells / MIC; for MIC: Staphylococcus aureus, ATCC 6538P / ATCC 6539P, read-out: MIC S. aureus ATCC 6539P
Method: as §1, §2, §3, §4

[3] = tested on: S. aureus ΔNorA; assay: Antibacterial MIC assay, serial dilution; type: cell-based, Staphylococcus aureus; conditions: for Selectivity index (CC50/MIC) S. aureus ΔNorA: CC50 Vero cells / MIC; for MIC: Staphylococcus aureus, read-out: MIC S. aureus ∆NorA
Method: as §1, §2, §3, §4

[4] = tested on: Methicillin resistant Staphylococcus epidermidis (MRSE) ATCC 35984 NRS101; assay: Antibacterial MIC assay, serial dilution; type: cell-based; conditions: for Selectivity index (CC50/MIC) MRSE 35984: CC50 Vero cells / MIC; for MIC: Staphylococcus epidermidis, read-out: MIC Methicillin resistant Staphylococcus epidermidis (MRSE) ATCC 35984 NRS101
[5] = tested on: Methicillin resistant S. aureus (MRSA) USA300; assay: Antibacterial MIC assay, serial dilution; type: cell-based, Staphylococcus aureus; conditions: for Selectivity index (CC50/MIC) MRSA USA300: CC50 Vero cells / MIC; for MIC: Staphylococcus aureus, read-out: MIC Methicillin resistant S. aureus (MRSA) USA300
[6] = tested on: Vancomycin resistant E. faecalis NR-31972 (VRE); assay: Antibacterial MIC assay, serial dilution; type: cell-based, Enterococcus faecalis; conditions: for Selectivity index (CC50/MIC) VRE NR-31972: CC50 Vero cells / MIC; for MIC: Enterococcus faecalis, VRE, 24 h, read-out: MIC Vancomycin resistant E. faecalis NR-31972 (VRE)
Method: as §1, §2, §3, §4

[7] = tested on: Acinetobacter baumannii ATCC 17978; assay: Antibacterial MIC assay, serial dilution; type: cell-based; conditions: ATCC17978, range from biological replicates
Method: as §1, §2, §3, §4

[8] = tested on: Enterococcus faecalis ATCC 29212; assay: Antibacterial MIC assay, serial dilution; type: cell-based; conditions: for Selectivity index (CC50/MIC) E. faecalis 29212: CC50 Vero cells / MIC; for MIC: Enterococcus faecalis, ATCC 29112 / ATCC 29212, 24 h, read-out: MIC E. faecalis ATCC 29112
Method: as §1, §2, §3, §4

[9] = tested on: Klebsiella pneumoniae ATCC 29665; assay: Antibacterial MIC assay, serial dilution; type: cell-based; conditions: for Selectivity index (CC50/MIC) K. pneumoniae: CC50 Vero cells / MIC; for MIC: Klebsiella pneumoniae, ATCC29665, range from biological replicates, read-out: MIC K. pneumoniae ATCC-29665
Method: as §1, §2, §3, §4

[10] = tested on: Pseudomonas aeruginosa; assay: Antibacterial MIC assay, serial dilution; type: cell-based; conditions: for Selectivity index (CC50/MIC) P. aeruginosa: CC50 Vero cells / MIC; for MIC: Pseudomonas aeruginosa, range from biological replicates, read-out: MIC P. aeruginosa
Method: as §1, §2, §3, §4

[11] = tested on: Vancomycin resistant Enterococcus faecium NR-31909 (VRE); assay: Antibacterial MIC assay, serial dilution; type: cell-based; conditions: for Selectivity index (CC50/MIC) VRE NR-31909: CC50 Vero cells / MIC; for MIC: Enterococcus faecium, VRE, 24 h, read-out: MIC Vancomycin resistant Enterococcus faecium NR-31909 (VRE)
Method: as §1, §2, §3, §4

[12] = tested on: Escherichia coli BAA-2452; assay: Antibacterial MIC assay, serial dilution; type: cell-based; conditions: BAA2452, read-out: MIC Escherichia coli BAA-2452
[13] = Cytotoxicity assay (MTS/PMS); type: cell-based; conditions: monkey, 24 h treatment, MTS/PMS, average of three biological replicates, read-out: CC50 against Vero cells
Method: The potential cytotoxic eff ect of the test compounds was investigated using Vero cells (monkey kidney epitheli al cells) following est ablished protocols.3 Briefly, Vero cells were plated into 96-well plates supplemented with Dulbecco's Modified Eagle Medium (DMEM) containing 10% fetal bovine serum (FBS). The cells were placed in a humidified 37 °C environment for incubation with 5% CO₂ for 24 h to allow proper adherence and growth. Following the incubation period, the culture medium was replaced with fresh DMEM containing serial dilutions of the test compounds, while the v ehicle alon e w as used as a negative control. The treated cells were incubated for an additional 24 h. To assess cell viability, the MTS/PMS reagent was added to each well and incubat ed for 4 h. A microplate reader (S ynergy H1, BioTek, USA) was used to m easure absorbance at 490 nm. Al l experiments wer e cond ucted usingthree biologi cal replicates .
Ta b l e S2. CC50 valuesa (µg/mL) against Vero cells […]
aValues at which the cell viability (normalized to vehicle control) was 50%. […]

[14] = Vero cells (monkey kidney epithelial cells)

Structure (SMILES)	Selectivity index (CC50/MIC) MRSA 43300 [1]	MIC [1] [µg/mL]	Selectivity index (CC50/MIC) S. aureus 6538P [2]	MIC [2] [µg/mL]	Selectivity index (CC50/MIC) S. aureus ΔNorA [3]	MIC [3] [µg/mL]	Selectivity index (CC50/MIC) MRSE 35984 [4]	MIC [4] [µg/mL]	Selectivity index (CC50/MIC) MRSA USA300 [5]	MIC [5] [µg/mL]	Selectivity index (CC50/MIC) VRE NR-31972 [6]	MIC [6] [µg/mL]	MIC [7] [µg/mL]	Selectivity index (CC50/MIC) E. faecalis 29212 [8]	MIC [8] [µg/mL]	Selectivity index (CC50/MIC) K. pneumoniae [9]	MIC [9] [µg/mL]	Selectivity index (CC50/MIC) P. aeruginosa [10]	MIC [10] [µg/mL]	Selectivity index (CC50/MIC) VRE NR-31909 [11]	other results
COC(=O)[C@H]1O[C@@H](n2ccc(N)nc2=O)C=C[C@@H]1NC(=O)C[C@@H](N)CCN(C)C(=N)N [Blastimidine M1, blasticidin S methyl ester]	1.3	16 to 32 (≈ 36.7 to 73.3 µM)	1.3	16 to 32 (≈ 36.7 to 73.3 µM)	0.3	64 to 128 (≈ 147 to 293 µM)	1.8	16 (≈ 36.7 µM)	3.6	8 (≈ 18.3 µM)	0.9	32 (≈ 73.3 µM)	128 (≈ 293 µM)	1.8	16 (≈ 36.7 µM)	0.4	64 (≈ 147 µM)	0.4	64 (≈ 147 µM)	0.4	MIC [11]: 64 µg/mL (≈ 147 µM); MIC [12]: 8 µg/mL (≈ 18.3 µM); CC50 at 24 h [13, 14]: 28 µg/mL (≈ 64.2 µM)
COC(=O)[C@H]1O[C@@H](n2ccc(NC(=O)c3ccc(N)cc3)nc2=O)C=C[C@@H]1NC(=O)C[C@@H](N)CCN(C)C(=N)N [Blastimidine M2]	7.9	16 (≈ 28.8 µM)	7.9	16 (≈ 28.8 µM)	5.9	16 to 32 (≈ 28.8 to 57.6 µM)	7.9	16 (≈ 28.8 µM)	16	8 (≈ 14.4 µM)	4.0	32 (≈ 57.6 µM)	> 128	16	8 (≈ 14.4 µM)	2.0	64 (≈ 115 µM)	<1.0	> 128	1.0	MIC [11]: 128 µg/mL (≈ 230 µM); MIC [12]: 32 µg/mL (≈ 57.6 µM); CC50 at 24 h [13]: 126 µg/mL (≈ 227 µM)
CNc1ccc(C(=O)Nc2ccn([C@H]3C=C[C@H](NC(=O)C[C@@H](N)CCN(C)C(=N)N)[C@@H](C(=O)O)O3)c(=O)n2)cc1 [Blastimidine C3]	<1.1	> 128	<1.1	> 128	<1.1	> 128	<1.1	> 128	1.1	128 (≈ 230 µM)	1.1	128 (≈ 230 µM)	> 128	2.2	64 (≈ 115 µM)	1.7	64 to 128 (≈ 115 to 230 µM)	<1.1	> 128	2.2	MIC [11]: 64 µg/mL (≈ 115 µM); MIC [12]: > 128 µg/mL; CC50 at 24 h [13, 14]: 142 µg/mL (≈ 256 µM)
